Results from patent US20140065119A1, “METHODS AND COMPOSITIONS COMPRISING CYCLIC ANALOGUES OF HISTATIN 5 FOR TREATING WOUNDS” (THE UNIVERSITY OF WESTERN ONTARIO, priority 2010, published 2014).
Positions of bridges follow the written chain, without caps; N, C: chain ends. Residues, ends and D or L forms follow the SMILES beside them.

Columns and labels:
[1] = test system: Primary human neonatal foreskin epithelial cells; test: Toxicity in primary cells, phase contrast morphology; format: cell-based
Description: (§1) Toxicological studies of DB2121 in human cells were also undertaken. Primary human neonatal foreskin epithelial cells were used to examine DB2121 toxicity, using a method as described in Min et al. 2004. Nat Biotechnol 22:717-23, the contents of which are incorporated herein by reference. Briefly, when the cells were in log phase, (A) 50 μM DB2121, B) 50 μM Histatin H5, (C) 50 μM ketoconazole, or (D) DMSO was added to the culture medium. At 18 and 36 hours following addition of compound, the foreskin epithelial cells were imaged using phase contract microscopy at 20× magnification. Immediately following the image analysis, proteins were extracted, separated on SDS-PAGE gels, Western blotted, and probed for phosphorylated and non-phosphorylated ERK 1, 2 to monitor cell spreading/migration and/or proliferation of the foreskin keratinocytes. The experiments was repeated three times.

[2] = test system: phosphorylated ERK 1, 2; test: Western blot for phosphorylated ERK 1, 2 in primary cells; format: cell-based, human; conditions: 50 μM, primary cell lysates
Description: as §1
It was then investigated whether or not these phenotypes were reflected at the molecular level. The primary cells were lysed and monitored for a marker of proliferation namely, phosphorylated ERK 1, 2.

[3] = test system: primary human foreskin epithelial cell culture; test: Viable cell number (trypan exclusion) in primary cell culture; format: cell-based; conditions: various concentrations, 0, 36 and 72 hours; vs 50 μM ketoconazole; FIG. 3
Description: To determine range of non-toxic concentrations of DB2121, various concentrations of DB2121, 50 μM ketoconazole or DMSO as a control were separately added to primary human foreskin epithelial cell culture. At 0, 36 and 72 hours after addition, the epithelial cells were titrated off the culture plate and the viable cell number was determined. The experiment was performed in triplicate. At 72 hours, the foreskin epithelial cells exposed to the various compounds were imaged at 20× magnification using phase contrast microscopy. For cell counting, the epithelial cells were stained with trypan exclusion stain to monitor cell viability.

[4] = Tolerability in mice, intra-peritoneal injection; format: in vivo
Description: (§2) In addition, mice were able to withstand a concentration of 15 mg/kg of DB2121 when injected via an intra-peritoneal route. When injected into adult rats, a concentration of up to and including 1.5 mg/kg caused no harm when injected intra-venously.

[5] = Tolerability in adult rats, intra-venous injection; format: in vivo
Description: as §2

[6] = Stability in human saliva in vitro by mass spectrometry; format: in vitro ADME; conditions: 1 uM, 37° C.
Description: DB2121 cyclic analogue was determined to be stable in vitro in human saliva for at least 72 hours as determined by mass spectrometry. The cyclic analogue was incubated in human saliva at a concentration of 1 uM and at a temperature of 37° C. in vitro. At various time points from 0 to 72 hours, 1.0 ul aliquots were taken and injected directly into a Micromass Quattro Micro mass spectrometer. Data was collected for a total of 3 minutes. The data was then processed using Mass Lynx 4.0 Analysis software.
The expected average mass of the cyclic histatin analogue in its active form is expected to be 2557.93. […] The peaks within an acceptable error of approximately 1 mass unit corresponding to cyclic histatin analogue were 2556.95 at 0 hours, 2557.65 at 24 hours, and 2557.10 at 72 hours incubation.

Row | SMILES | toxicity to human primary cells ([1]; working concentrations of 50 μM, conclusion from morphology and ERK studies) | ERK 1, 2 activation (phosphorylated ERK 1, 2) vs control [2] | toxicity in primary cultured cells (viable cell number) [3] | concentration (dose) mice were able to withstand [4] [mg/kg] | concentration (dose) that caused no harm [5] [mg/kg] | time stable in human saliva [6] | cell morphology ([1]; 50 μM, 18 and 36 hours, phase contrast 20×)
1 | N=C(N)NCCC[C@H](NC(=O)[C@H](Cc1c[nH]cn1)NC(=O)[C@@H]1CSSC[C@H](NC(=O)[C@H](Cc2c[nH]cn2)NC(=O)[C@H](Cc2c[nH]cn2)NC(=O)[C@@H](N)CCCNC(=N)N)C(=O)N[C@@H](Cc2ccc(O)cc2)C(=O)N[C@@H](CCCCN)C(=O)N[C@@H](CCCNC(=N)N)C(=O)N[C@@H](CCCCN)C(=O)N[C@@H](Cc2ccccc2)C(=O)N[C@@H](Cc2c[nH]cn2)C(=O)N[C@@H](CCC(=O)O)C(=O)N[C@@H](CCCCN)C(=O)N[C@@H](Cc2c[nH]cn2)C(=O)N[C@@H](Cc2c[nH]cn2)C(=O)N1)C(=O)NCC(=O)N[C@@H](Cc1ccc(O)cc1)C(=O)O [DB2121, N-RHHCYKRKFHEKHHCHRGY-C] (H-RHHCYKRKFHEKHHCHRGY-OH; disulfide 4-15; N-terminus and C-terminus assumed) | non-toxic | not suppressed | minimal toxicity | 15 | ≤ 1.5 | at least 72 hours | 
2 | CC(=O)N1CCN(c2ccc(OCC3COC(Cn4ccnc4)(c4ccc(Cl)cc4Cl)O3)cc2)CC1 (centres unmarked) [ketoconazole, Ketoconazole, reference compound] |  | Significant inhibition of ERK 1, 2 activation |  |  |  |  | morphologically normal except when treated with ketoconazole
